Biological target: Adrenergic β1 (Homo sapiens, UniProt P08588)
Test: Eurofins Hit Profiling Screen
Type: binding
Details: 10 μmol/L

Sequence of Adrenergic β1 (P08588 whole entry): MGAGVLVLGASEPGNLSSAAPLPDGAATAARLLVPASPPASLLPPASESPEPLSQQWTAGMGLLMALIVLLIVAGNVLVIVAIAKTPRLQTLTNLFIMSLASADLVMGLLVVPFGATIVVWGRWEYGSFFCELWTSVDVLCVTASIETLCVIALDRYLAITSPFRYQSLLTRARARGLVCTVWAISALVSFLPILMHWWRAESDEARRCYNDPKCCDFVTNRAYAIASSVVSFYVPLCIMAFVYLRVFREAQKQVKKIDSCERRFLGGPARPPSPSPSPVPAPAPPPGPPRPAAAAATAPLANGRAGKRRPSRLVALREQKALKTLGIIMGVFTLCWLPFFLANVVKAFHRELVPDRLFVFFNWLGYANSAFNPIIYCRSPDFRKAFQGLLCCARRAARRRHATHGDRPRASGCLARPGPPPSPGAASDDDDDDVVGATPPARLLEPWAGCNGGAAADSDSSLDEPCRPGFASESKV

## Cc1c(-c2cccc(S(=O)(=O)N(C)C)c2)c2ncccc2n1C/C(F)=C/CN.Cl.Cl [PXS-5153A]
  % inhibition: 3%

From paper PMC6378217, “The lysyl oxidase like 2/3 enzymatic inhibitor, PXS‐5153A, reduces crosslinks and ameliorates fibrosis” (Journal of Cellular and Molecular Medicine, 2018)
